Assay results: publication PMC7559897, “Designed Antimicrobial Peptides Against Trauma-Related Cutaneous Invasive Fungal Wound Infections” (Journal of Fungi, 2020)
Values after ≈ are worked out from the molar mass of the structure shown. Bridge positions count the residues as written; N and C are the ends. Square brackets hold non-standard residues; d marks the D form. Ends that are not written are not given here. Peptide text beside a SMILES is read from it. Orn = NCCC[C@H](N)C(=O)O

Key:
[1] = system: Absidia corymbifera NRRL 6251; format: cell-based; conditions: NRRL 6251, 24 h
Description: (§1) Assays were performed by Trideum Biosciences (Frederick, MD, USA). Isolates were thawed from −80 °C storage and sub-cultured on trypticase soy agar plates at 37 °C prior to experimentation. A single colony was aseptically picked from the agar plate and released in 30 mL trypticase soy broth and incubated overnight at 37 °C incubator. Following which the bacterial culture was diluted to approximately 10^6 colony forming units (CFU)/mL using 2X cation adjusted Mueller–Hinton broth and added to the dAMP solutions (0, 2, 4, 8, 16, 32, 64, and 128 μg/mL) which had been formulated in water at 256 μg/mL and then serially diluted in media on 96-well pates. For fungal evaluation, potato dextrose broth and potato dextrose agar plates were used. The treated cultures were then incubated for 24 h at 37 °C and pathogen growth was measured by absorbance at 600 nm. Four replicas were included for each dAMP concentration. Each MIC was assigned to the lowest test agent concentration resulting in at least three out of four wells showing no growth based on an optical density (OD) reading of <0.1.

[2] = system: Aspergillus flavus MYA-1004; format: cell-based; conditions: 24 h
Description: as §1

[3] = system: Aspergillus flavus MYA-3651; format: cell-based; conditions: 24 h
Description: as §1

[4] = system: Aspergillus fumigatus 9648; format: cell-based; conditions: 9648, 24 h
Description: as §1

[5] = system: Aspergillus fumigatus 9651; format: cell-based; conditions: 9651, 24 h
Description: as §1

[6] = system: Candida albicans Y-326; format: cell-based; conditions: Y-326, 24 h
Description: as §1

[7] = system: Candida albicans Y-6359; format: cell-based; conditions: Y-6359, 24 h
Description: as §1

[8] = system: Candida krusei Y-27803; format: cell-based; conditions: Y-27803, 24 h
Description: as §1

[9] = system: Candida krusei Y-27825; format: cell-based; conditions: Y-27825, 24 h
Description: as §1

[10] = system: Candida parapsilosis Y-1761; format: cell-based; conditions: Y-1761, 24 h
Description: as §1

[11] = system: Candida parapsilosis Y-1763; format: cell-based; conditions: Y-1763, 24 h
Description: as §1

[12] = system: E. cloacae 6053; format: cell-based; conditions: 6053, 24 h
Description: as §1

[13] = system: E. cloacae 6054; format: cell-based; conditions: 6054, 24 h
Description: as §1

[14] = system: Fusarium solani NRRL 28548; format: cell-based; conditions: NRRL 28548, 24 h
Description: as §1

[15] = system: Mucor circinelloides NRRL 3631; format: cell-based; conditions: NRRL 3631, 24 h
Description: as §1

[16] = system: S. epidermis ATCC 51625; format: cell-based; conditions: ATCC 51625, 24 h
Description: as §1

[17] = system: A. baumannii 6043; format: cell-based, Acinetobacter baumannii; conditions: 6043, 24 h
Description: as §1

[18] = system: A. baumannii 6838; format: cell-based, Acinetobacter baumannii; conditions: 6838, 24 h
Description: as §1

[19] = system: A. baumannii ATCC 17978; format: cell-based, Acinetobacter baumannii; conditions: ATCC 17978, 24 h
Description: as §1

[20] = system: K. pneumonia 6069; format: cell-based, Klebsiella pneumoniae; conditions: 24 h
Description: as §1

[21] = system: K. pneumonia ATCC 10031; format: cell-based, Klebsiella pneumoniae; conditions: ATCC 10031, 24 h
Description: as §1

[22] = system: P. aeruginosa 6186; format: cell-based, Pseudomonas aeruginosa; conditions: 6186, 24 h
Description: as §1

[23] = system: P. aeruginosa ATCC 19660; format: cell-based, Pseudomonas aeruginosa; conditions: ATCC 19660, 24 h
Description: as §1

[24] = system: P. aeruginosa ATCC 27853; format: cell-based, Pseudomonas aeruginosa; conditions: ATCC 27853, 24 h
Description: as §1

[25] = system: MRSA 6313; format: cell-based, Staphylococcus aureus; conditions: 6313, 24 h
Description: as §1

[26] = system: MRSA 6381; format: cell-based, Staphylococcus aureus; conditions: 6381, 24 h
Description: as §1

[27] = system: MRSA ATCC 33592; format: cell-based, Staphylococcus aureus; conditions: ATCC 33592, 24 h
Description: as §1

[28] = system: S. aureus 6061; format: cell-based, Staphylococcus aureus; conditions: 6061, 24 h
Description: as §1

[29] = system: S. aureus B-767; format: cell-based, Staphylococcus aureus; conditions: B-767, 24 h
Description: as §1

[30] = system: vulvovaginal candidiasis infection; conditions: rats with vulvovaginal candidiasis, oral; cited from earlier work
Source text: The dAMPs RP504, RP554 and RP557 were thus tested for their ability to treat a rodent vulvovaginal candidiasis infection. […] A daily dose with a 2% concentration lowered the CFU/sample by more than 4 logs compared to the con ...

| Compound | MIC against Absidia corymbifera NRRL 6251 [1] | MIC against Aspergillus flavus MYA-1004 [2] | MIC against Aspergillus flavus MYA-3651 [3] | MIC against Aspergillus fumigatus 9648 [4] | MIC against Aspergillus fumigatus 9651 [5] | MIC against Candida albicans Y-326 [6] | MIC against Candida albicans Y-6359 [7] | MIC against Candida krusei Y-27803 [8] | MIC against Candida krusei Y-27825 [9] | MIC against Candida parapsilosis Y-1761 [10] | MIC against Candida parapsilosis Y-1763 [11] | MIC against E. cloacae 6053 [12] | MIC against E. cloacae 6054 [13] | MIC against Fusarium solani NRRL 28548 [14] | MIC against Mucor circinelloides NRRL 3631 [15] | MIC against S. epidermis ATCC 51625 [16] | MIC against A. baumannii 6043 [17] | MIC against A. baumannii 6838 [18] | MIC against A. baumannii ATCC 17978 [19] | MIC against K. pneumonia 6069 [20] | further results |
| --- | --- | --- | --- | --- | --- | --- | --- | --- | --- | --- | --- | --- | --- | --- | --- | --- | --- | --- | --- | --- | --- |
| CSCC[C@@H]1NC(=O)[C@H](C(C)C)NC(=O)[C@H](C(C)C)NC(=O)[C@H](CC(C)C)NC(=O)[C@H](Cc2c[nH]c3ccccc23)NC(=O)[C@H](C(C)C)NC(=O)[C@@H](NC(=O)[C@H](Cc2c[nH]c3ccccc23)NC(=O)[C@@H](N)CCCNC(=N)N)CSSC[C@@H](C(=O)N[C@@H](CCCCN)C(=O)N[C@@H](CCCCN)C(N)=O)NC1=O [RP513] (H-RWCVWLVVMCKK-NH2; disulfide 3-10) | 32 µg/mL (≈ 20.7 µM) | >128 µg/mL | 128 µg/mL (≈ 82.7 µM) | 128 µg/mL (≈ 82.7 µM) | >128 µg/mL | 64 µg/mL (≈ 41.3 µM) | 64 µg/mL (≈ 41.3 µM) | 64 µg/mL (≈ 41.3 µM) | 64 µg/mL (≈ 41.3 µM) | >128 µg/mL | >128 µg/mL | >128 µg/mL | >128 µg/mL | 16 µg/mL (≈ 10.3 µM) | 32 µg/mL (≈ 20.7 µM) | >128 µg/mL | 64 µg/mL (≈ 41.3 µM) | 128 µg/mL (≈ 82.7 µM) | >128 µg/mL | 128 µg/mL (≈ 82.7 µM) | MIC against K. pneumonia ATCC 10031 [21]: 128 µg/mL (≈ 82.7 µM); MIC against P. aeruginosa 6186 [22]: >128 µg/mL; MIC against P. aeruginosa ATCC 19660 [23]: >128 µg/mL; MIC against P. aeruginosa ATCC 27853 [24]: >128 µg/mL; MIC against MRSA 6313 [25]: >128 µg/mL; MIC against MRSA 6381 [26]: >128 µg/mL; MIC against MRSA ATCC 33592 [27]: >128 µg/mL; MIC against S. aureus 6061 [28]: >128 µg/mL; MIC against S. aureus B-767 [29]: >128 µg/mL |
| OC(Cn1cncn1)(Cn1cncn1)c1ccc(F)cc1F [fluconazole, reference compound] | – | – | – | – | – | – | – | – | – | – | – | – | – | – | – | – | – | – | – | – | reduction in tissue candidiasis infection (in words) [30]: non-significant reduction |
| FKLRAKIKVRLRAKIKL [D4E1, reference compound] | 2 µg/mL | 128 µg/mL | 128 µg/mL | 128 µg/mL | 64 µg/mL | 64 µg/mL | 64 µg/mL | 64 µg/mL | 64 µg/mL | 64 µg/mL | 64 µg/mL | 8 µg/mL | 4 µg/mL | 2 µg/mL | 128 µg/mL | 4 µg/mL | >128 µg/mL | 8 µg/mL | 16 µg/mL | 16 µg/mL | MIC against K. pneumonia ATCC 10031 [21]: 32 µg/mL; MIC against P. aeruginosa 6186 [22]: 16 µg/mL; MIC against P. aeruginosa ATCC 19660 [23]: 32 µg/mL; MIC against P. aeruginosa ATCC 27853 [24]: 16 µg/mL; MIC against MRSA 6313 [25]: 8 µg/mL; MIC against MRSA 6381 [26]: 8 µg/mL; MIC against MRSA ATCC 33592 [27]: 8 µg/mL; MIC against S. aureus 6061 [28]: 8 µg/mL; MIC against S. aureus B-767 [29]: 4 µg/mL |
| CC[C@H](C)[C@H](NC(=O)[C@H](CCCN)NC(=O)[C@H](C)NC(=O)[C@H](CCCN)NC(=O)[C@H](CC(C)C)NC(=O)[C@H](CCCCN)NC(=O)[C@@H](NC(=O)[C@H](CCCCN)NC(=O)[C@@H](NC(=O)[C@H](CCCN)NC(=O)[C@H](C)NC(=O)[C@H](CCCN)NC(=O)[C@H](CC(C)C)NC(=O)[C@H](CCCN)NC(=O)[C@@H](N)Cc1ccccc1)[C@@H](C)CC)C(C)C)C(=O)N[C@@H](CCCN)C(=O)N[C@@H](CC(C)C)C(N)=O [RP555] (H-F[Orn]L[Orn]A[Orn]IKVKL[Orn]A[Orn]I[Orn]L-NH2) | 4 µg/mL (≈ 2.09 µM) | >128 µg/mL | 128 µg/mL (≈ 66.9 µM) | 64 µg/mL (≈ 33.5 µM) | 64 µg/mL (≈ 33.5 µM) | 32 µg/mL (≈ 16.7 µM) | 32 µg/mL (≈ 16.7 µM) | 32 µg/mL (≈ 16.7 µM) | 32 µg/mL (≈ 16.7 µM) | 32 µg/mL (≈ 16.7 µM) | 16 µg/mL (≈ 8.37 µM) | 2 µg/mL (≈ 1.05 µM) | 4 µg/mL (≈ 2.09 µM) | 2 µg/mL (≈ 1.05 µM) | 64 µg/mL (≈ 33.5 µM) | 2 µg/mL (≈ 1.05 µM) | 16 µg/mL (≈ 8.37 µM) | 4 µg/mL (≈ 2.09 µM) | 4 µg/mL (≈ 2.09 µM) | 16 µg/mL (≈ 8.37 µM) | MIC against K. pneumonia ATCC 10031 [21]: 4 µg/mL (≈ 2.09 µM); MIC against P. aeruginosa 6186 [22]: 4 µg/mL (≈ 2.09 µM); MIC against P. aeruginosa ATCC 19660 [23]: 8 µg/mL (≈ 4.18 µM); MIC against P. aeruginosa ATCC 27853 [24]: 4 µg/mL (≈ 2.09 µM); MIC against MRSA 6313 [25]: 16 µg/mL (≈ 8.37 µM); MIC against MRSA 6381 [26]: 16 µg/mL (≈ 8.37 µM); MIC against MRSA ATCC 33592 [27]: 8 µg/mL (≈ 4.18 µM); MIC against S. aureus 6061 [28]: 16 µg/mL (≈ 8.37 µM); MIC against S. aureus B-767 [29]: 8 µg/mL (≈ 4.18 µM) |
